Reference: patent US20110044938A1 (NYCOMED GMBH, priority 2006, published 2011)

Columns and labels:
[1] = system: subclones of RKO colon adenocarcinoma cells (RKOp27 or RKOp21) arrested by Ponasterone A; assay: Alamar Blue cell viability assay, cell cycle specific mode of action: cells arrested by ectopic p27Kip1 induced by Ponasterone A versus proliferating cells; format: cell-based; conditions: Homo sapiens, RKO p27 induced (arrested) cells, 10 μM Ponasterone A, 72 hours, value = class bound given in Table A, read-out: −logIC50 RKO p27 induced (arrested) (converted)
In short: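 Viability of proliferating versus Ponasterone A (10 μM)-arrested RKOp27/RKOp21 cells after 72 h compound exposure at 37° C, in quadruplicate. Read-out is Alamar Blue fluorescence (544/590 nm) normalised to untreated cells = 100%; values as −log IC50.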

[2] = system: RKO (RKOp27) human colon adenocarcinoma cells; assay: Alamar Blue cell viability assay, anti-proliferative/cytotoxic activity on proliferating RKO subclones; format: cell-based; conditions: RKOp27, 72 h, RKO p27 uninduced (proliferating) cells, value = class bound given in Table A, read-out: −logIC50 RKO p27 uninduced (proliferating) (converted)
In short: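 Alamar Blue fluorescence (ex 544, em 590 nm) after 72 h compound exposure at 37 °C, 5% CO2, normalised to untreated controls set at 100%. Cells were seeded at 5000 per well and dosed 24 h later with serial semi-logarithmic dilutions in 10% FCS DMEM, four replicates each. −log IC50 [mol/l] was derived from concentration-effect curves.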

SMILES	IC50 [1]	IC50 [2]
COc1cccc(CCC(=O)Nc2sc3c(c2C#N)CCC(OC(=O)N2CCOCC2)C3)c1 (stereo not shown) [Example 231, Morpholine-4-carboxylic acid 3-cyano-2-[3-(3-methoxy-phenyl)-propanoylamino]-4,5,6,7-tetrahydro-benzo[b]thiophen-6-yl ester]	≥ 100000 nM	≤ 501 nM
COc1cccc(CCC(=O)Nc2sc3c(c2C#N)CCC(COC(=O)NCc2ccnn2C)C3)c1 (stereo not shown) [Example 237, (2-Methyl-2H-pyrazol-3-ylmethyl)-carbamic acid 3-cyano-2-[3-(3-methoxy-phenyl)-propanoylamino]-4,5,6,7-tetrahydro-benzo[b]thiophen-6-ylmethyl ester]	≥ 100000 nM	501 to 2000 nM
N#Cc1c(NC(=O)/C=C/c2cccnc2)sc2c1CCC(COC(=O)N1CC(F)C1)C2 (stereo not shown) [Example 121, 3-Fluoro-azetidine-1-carboxylic acid 3-cyano-2-((E)-3-pyridin-3-yl-allanoylamino)-4,5,6,7-tetrahydro-benzo[b]thiophen-6-ylmethyl ester]	≥ 100000 nM	≤ 501 nM
Cc1cc(CNC(=O)OC[C@H]2CCc3c(sc(NC(=O)/C=C/c4cccnc4)c3C#N)C2)no1 [Example 47a, (S)-(5-Methyl-isoxazol-3-ylmethyl)-carbamic acid 3-cyano-2-((E)-3-pyridin-3-yl-allanoylamino)-4,5,6,7-tetrahydro-benzo[b]thiophen-6-ylmethyl ester]	≥ 100000 nM	≤ 501 nM
N#Cc1c(NC(=O)CCc2cccnc2)sc2c1CCC(COC(=O)NCc1ccccc1)C2 (stereo not shown) [Example 157, Benzyl-carbamic acid 3-cyano-2-(3-pyridin-3-yl-propanoylamino)-4,5,6,7-tetrahydro-benzo[b]thiophen-6-ylmethyl ester]	≥ 100000 nM	≤ 501 nM
Cc1ccncc1/C=C/C(=O)Nc1sc2c(c1C#N)CCC(COC(=O)N1CCC[C@@H](O)C1)C2 (stereo partly drawn) [Example 131, (R)-3-Hydroxy-piperidine-1-carboxylic acid 3-cyano-2-[(E)-3-(4-methyl-pyridin-3-yl)-allanoylamino]-4,5,6,7-tetrahydro-benzo[b]thiophen-6-ylmethyl ester]	≥ 100000 nM	≤ 501 nM
N#Cc1c(NC(=O)/C=C/c2cccnc2)sc2c1CC[C@@H](COC(=O)N1CCCC1)C2 [Example 68b, Pyrrolidine-1-carboxylic acid (R)-3-cyano-2-((E)-3-pyridin-3-yl-allanoylamino)-4,5,6,7-tetrahydro-benzo[b]thiophen-6-ylmethyl ester]	≥ 100000 nM	≤ 501 nM
CN(C)c1ncc(CNC(=O)OCC2CCc3c(sc(NC(=O)/C=C/c4cccnc4)c3C#N)C2)s1 (stereo not shown) [Example 140, (2-Dimethyl-amino-thiazol-5-ylmethyl)-carbamic acid 3-cyano-2-((E)-3-pyridin-3-yl-allanoylamino)-4,5,6,7-tetrahydro-benzo[b]thiophen-6-ylmethyl ester]	≥ 100000 nM	≤ 501 nM
C=CCN(C)C(=O)OCC1CCc2c(sc(NC(=O)/C=C/c3cccnc3)c2C#N)C1 (stereo not shown) [Example 112, Allyl-methyl-carbamic acid 3-cyano-2-((E)-3-pyridin-3-yl-allanoylamino)-4,5,6,7-tetrahydro-benzo[b]thiophen-6-ylmethyl ester]	≥ 100000 nM	≤ 501 nM
CCOc1ccccc1CCC(=O)Nc1sc2c(c1C#N)CCC(OC(=O)OCc1cncs1)C2 (stereo not shown) [Example 211, Carbonic acid 3-cyano-2-[3-(2-ethoxy-phenyl)-propanoylamino]-4,5,6,7-tetrahydro-benzo[b]thiophen-6-yl ester thiazol-5-ylmethyl ester]	≥ 100000 nM	501 to 2000 nM
CNC(=O)OCC1CCc2c(sc(NC(=O)CCc3cccnc3)c2C#N)C1 (stereo not shown) [Example 162, Methyl-carbamic acid 3-cyano-2-(3-pyridin-3-yl-propanoylamino)-4,5,6,7-tetrahydro-benzo[b]thiophen-6-ylmethyl ester]	≥ 100000 nM	501 to 2000 nM
N#Cc1c(NC(=O)/C=C/c2cccnc2)sc2c1CCC(OC(=O)NCc1ncc[nH]1)C2 (stereo not shown) [Example 39, (1H-Imidazol-2-ylmethyl)-carbamic acid 3-cyano-2-((E)-3-pyridin-3-yl-allanoylamino)-4,5,6,7-tetrahydro-benzo[b]thiophen-6-yl ester]	≥ 100000 nM	501 to 2000 nM
N#Cc1c(NC(=O)/C=C/c2cccnc2)sc2c1CCC(OC(=O)N[C@H]1CC[C@H](O)CC1)C2 (stereo partly drawn) [Example 106, trans-4-Hydroxycyclohexyl-carbamic acid 3-cyano-2-((E)-3-pyridin-3-yl-allanoylamino)-4,5,6,7-tetrahydro-benzo[b]thiophen-6-yl ester]	≥ 100000 nM	501 to 2000 nM
COc1cccc(C(C)CC(=O)Nc2sc3c(c2C#N)CCC(COC(=O)NCc2csc(C)n2)C3)c1 (stereo not shown) [Example 363, (2-Methyl-thiazol-4-ylmethyl)-carbamic acid 3-cyano-2-[3-(3-methoxy-phenyl)-butanoyl-amino]-4,5,6,7-tetrahydro-benzo[b]thiophen-6-ylmethyl ester]	≥ 100000 nM	501 to 2000 nM
Cc1ccncc1/C=C/C(=O)Nc1sc2c(c1C#N)CCC(COC(=O)N1CCC[C@H]1CO)C2 (stereo partly drawn) [Example 135, 2-(S)-(Hydroxymethyl) pyrrolidine-1-carbamic acid 3-cyano-2-[(E)-3-(4-methyl-pyridin-3-yl)-allanoylamino]-4,5,6,7-tetrahydro-benzo[b]thiophen-6-ylmethyl ester]	≥ 100000 nM	501 to 2000 nM
CCOC(=O)OCC1CCc2c(sc(NC(=O)/C=C/c3cccnc3)c2C#N)C1 (stereo not shown) [Example 8, Carbonic acid 3-cyano-2-((E)-3-pyridin-3-yl-allanoylamino)-4,5,6,7-tetrahydro-benzo[b]thiophen-6-ylmethyl ester ethyl ester]	≥ 100000 nM	501 to 2000 nM
N#Cc1c(NC(=O)/C=C/c2cccnc2)sc2c1CCC(OC(=O)NC1CCCC1)C2 (stereo not shown) [Example 110, Cyclopentyl-carbamic acid 3-cyano-2-((E)-3-pyridin-3-yl-allanoylamino)-4,5,6,7-tetrahydro-benzo[b]thiophen-6-yl ester]	≥ 100000 nM	≤ 501 nM

Second part, led by results:

IC50 [1]	SMILES	IC50 [2]
≥ 10000 nM	Cc1nc(CNC(=O)OCC2CCc3c(sc(NC(=O)CC(C)c4cccnc4)c3C#N)C2)cs1 (stereo not shown) [Example 377, (2-Methyl-thiazol-4-ylmethyl)-carbamic acid 3-cyano-2-(3-pyridin-3-yl-butanoylamino)-4,5,6,7-tetrahydro-benzo[b]thiophen-6-ylmethyl ester]	501 to 2000 nM
≥ 100000 nM	Cc1oncc1CNC(=O)OC1CCc2c(sc(NC(=O)CC(C)c3ccccc3)c2C#N)C1 (stereo not shown) [Example 358, (5-Methyl-isoxazol-4-ylmethyl)-carbamic acid 3-cyano-2-(3-phenyl-butanoylamino)-4,5,6,7-tetrahydro-benzo[b]thiophen-6-yl ester]	≤ 501 nM
≥ 50100 nM	CC(CC(=O)Nc1sc2c(c1C#N)CCC(COC(=O)NCc1ccccn1)C2)c1ccccc1 (stereo not shown) [Example 304, Pyridin-2-ylmethyl-carbamic acid 3-cyano-2-(3-phenyl-butanoylamino)-4,5,6,7-tetrahydro-benzo[b] thiophen-6-ylmethyl ester]	≤ 501 nM
≥ 100000 nM	Cc1cc(CNC(=O)OCC2CCc3c(sc(NC(=O)CC(C)c4cccnc4)c3C#N)C2)no1 (stereo not shown) [Example 282, (5-Methyl-isoxazol-3-ylmethyl)-carbamic acid 3-cyano-2-(3-pyridin-3-yl-butanoylamino)-4,5,6,7-tetrahydro-benzo[b]thiophen-6-ylmethyl ester]	≤ 501 nM
≥ 10000 nM	COc1cccc(C(C)CC(=O)Nc2sc3c(c2C#N)CCC(COC(=O)NCc2c[nH]nc2C)C3)c1 (stereo not shown) [Example 336, (3-Methyl-1H-pyrazol-4-ylmethyl)-carbamic acid 3-cyano-2-[3-(3-methoxy-phenyl)-butanoylamino]-4,5,6,7-tetrahydro-benzo[b] thiophen-6-ylmethyl ester]	501 to 2000 nM
≥ 50100 nM	Cc1cc(CNC(=O)OC2CCc3c(sc(NC(=O)CC(C)c4ccccc4)c3C#N)C2)no1 (stereo not shown) [Example 295, (5-Methyl-isoxazol-3-ylmethyl)-carbamic acid 3-cyano-2-(3-phenyl-butanoylamino)-4,5,6,7-tetrahydro-benzo[b] thiophen-6-yl ester]	≤ 501 nM
≥ 100000 nM	CC(CC(=O)Nc1sc2c(c1C#N)CCC(COC(=O)NC(C)c1ccccc1)C2)c1cccnc1 (stereo not shown) [Example 283, (1-Phenyl-ethyl)-carbamic acid 3-cyano-2-(3-pyridin-3-yl-butanoylamino)-4,5,6,7-tetrahydro-benzo[b]thiophen-6-ylmethyl ester]	501 to 2000 nM
≥ 100000 nM	CC(CC(=O)Nc1sc2c(c1C#N)CCC(COC(=O)NCc1ccno1)C2)c1ccccc1 (stereo not shown) [Example 353, Isoxazol-5-ylmethyl-carbamic acid 3-cyano-2-(3-phenyl-butanoylamino)-4,5,6,7-tetrahydro-benzo[b] thiophen-6-ylmethyl ester]	≤ 501 nM
≥ 50100 nM	Cc1cc(CNC(=O)OC2CCc3c(sc(NC(=O)CC(C)c4ccccc4)c3C#N)C2)on1 (stereo not shown) [Example 373, (3-Methyl-isoxazol-5-ylmethyl)-carbamic acid 3-cyano-2-(3-phenyl-butanoylamino)-4,5,6,7-tetrahydro-benzo[b]thiophen-6-yl ester]	≤ 501 nM
